Measurements reported in patent US20010056063A1, “METHOD OF TREATING OR PREVENTING TYPE 1 DIABETES BY ORAL ADMINISTRATION OF INSULIN” (priority 1990, published 2001).
“Also recorded” adds a separate entry of the source.

Legend:
Format in all cases: in vivo, mouse
NOD mice [1] = assay: Treatment of initial stages of diabetes in hyperglycemic NOD mice (Example 5); conditions: oral and aerosol, 0 to 1 mg, hyperglycemic NOD mice from weeks 12-20
Protocol: Insulin (0 to 1 mg as in Examples 1 and 2) will be administered to NOD mice which are suffering from hyperglycemia in an oral and aerosol form. The treatments will begin by weeks 12 -20 of age, by which the serum glucose levels are at hyperglycemic concentrations in a certain percentage of animals prior to onset of diabetes.

NOD mice [2] = assay: Insulitis in insulin-fed NOD mice (preliminary experiments); conditions: fed 1 mg, vs PBS-fed NOD mice; data not shown
From the text: Therefore, oral administration of insulin to NOD mice appeared to be affecting the infiltration of immune system cells into the pancreas and thus halting disease progression by preserving beta cell function.

[3] = test system: NOD (non-obese diabetic) mice; assay: Spontaneous diabetes in NOD mice after oral feeding (Examples 1 and 3); conditions: for development of diabetes: FIG. 1
From the text: NOD (non-obese diabetic mice) were obtained from Taconic Laboratories (Germantown, Mass.) at 4 weeks of age. There were a total of 30 animals in each of the groups mentioned below at the beginning of the experiment. At 4 ½ weeks of age, animals were orally administered Porcine insulin (Novo Laboratories, Danbury, Conn.). Each animal received two treatments orally twice a week until 9 weeks of age. The mice were fed either saline (control) or 10 micrograms, 100 micrograms, or 1 milligram of Porcine insulin. The animals were fed (gavaged) with an 18 gauge ball-point needle (Popper and Sons, Inc., New Hyde Park, N.Y.). Beginning at 10 weeks the animals were then fed once a week for a total of 33 weeks. Beginning at 12 weeks the urine was tested weekly for the presence of glucose using Glucosuria test tape (Eli Lilly, Indianapolis, Ind.). If an animal tested 3+or higher on the glucose urine test, a serum sample was taken and blood glucose measured using a glucose analyzer (Beckman). If the blood glucose was 220 or higher, the animals were classified as diabetic and then sacrificed. An identical experiment to Example 1 was performed in which NOD mice (14-17 per group) were fed one homogenized pancreas derived from Lewis rats in 0.5 mls PBS. […] Nonetheless, the effect is not as dramatic and complete as that seen in the animals fed insulin.

NOD mice [4] = assay: Glucose post oral insulin in fasting 7 week NOD mice (Example 2); conditions: for endocrinologic effect on blood glucose: oral 1 mg, over 24 hours
Protocol: In order to determine whether any endocrinologic (i.e. direct lowering of blood sugar) effects occurred following the feeding of insulin, 7 week old NOD mice (5 mice per group) were fed 1 mg of porcine insulin or 1 mg of myelin basic protein (obtained from Pel Freez, Rogers, Ark.) as a control protein. Blood glucose was then measured over the next 24 hour period. As a positive control, a separate group of animals were injected subcutaneously with 20 micrograms of Porcine insulin. All animals were kept in the fasting state.

NOD mice [5] = assay: Aerosol administration of insulin on diabetes in NOD mice (Example 4); conditions: aerosol by nebulizer, 0 to 1 mg
Protocol: Insulin (0 to 1 mg as in Examples 1 and 2) will be administered to NOD mice as described above in Examples 1 and 2 except in aerosol form by nebulizer.

Substance | beta cell function (NOD mice [1]) | serum glucose concentrations (NOD mice [1]) | inflammatory immune system cells surrounding the pancreas (insulitis) (NOD mice [2]) | treated animals that failed to develop diabetes ([3]; oral 1 mg (highest dose)) [%] | development of diabetes ([3]; oral 1 mg, twice a week until 9 weeks of age, then once a week) | development of diabetes ([3]; oral 10 microgram group, dose response fashion) | development of diabetes ([3]; oral 100 microgram group, dose response fashion) | incidence / development of diabetes ([3]; oral, all doses tested (10 micrograms, 100 micrograms, 1 mg)) | endocrinologic effect on blood glucose (NOD mice [4]; FIG. 2) | period over which the glucose decrease persisted (NOD mice [4]; subcutaneous 20 micrograms) [h] | decrease in blood glucose level (NOD mice [4]; subcutaneous 20 micrograms, FIG. 2) | prevention of symptoms (hyperglycemia) of Type 1 diabetes (NOD mice [5])
Porcine insulin | preservation of beta cell function | reduction in serum glucose concentrations to near normal levels | fewer inflammatory immune system cells surrounding the pancreas | 100 | none of the mice went on to develop diabetes; also recorded: no diabetes developed; also recorded: None of the animals developed diabetes | diabetes developed | diabetes developed | lower incidence of diabetes at all doses; also recorded: reduced the numbers of these mice which subsequently went on to develop diabetes | no drop in the blood glucose; also recorded: no endocrinologic (metabolic) effects | 4 | approximately 80 mg % | effective in preventing the manifestation of symptoms
myelin basic protein | – | – | – | – | – | – | – | – | no drop in the blood glucose | – | – | –
